Assays:
Assay in all cases: relative viability (nuclei count vs DMSO), 5 days (fraction); higher = more cells survive
Wnt-C59 + Alpelisib = compound: CC1=NC=CC(=C1)C2=CC=C(C=C2)CC(=O)NC3=CC=C(C=C3)C4=CN=CC=C4 [Wnt-C59] + Cc1nc(NC(=O)N2CCC[C@H]2C(N)=O)sc1-c1ccnc(C(C)(C)C(F)(F)F)c1 [Alpelisib] (partner 2 µM)
How it was run: (§1)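 Cells from lung cancer lines were seeded into 1536-well plates and, one day later, dosed by pin tool. Treatments were either a single drug or a fixed dose of an anchor drug with five library-drug doses (not always all listed) in √10 steps. After 5 days, nuclei were stained in a one-step fixation (final 0.05% Triton X-100, 1% formaldehyde, 1 ug/ml Hoechst) and counted on 4× images, and relative viability is the treated-to-vehicle nuclei ratio, as the median of duplicate plates.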

Lapatinib + Trametinib = compound: CS(=O)(=O)CCNCc1ccc(-c2ccc3ncnc(Nc4ccc(OCc5cccc(F)c5)c(Cl)c4)c3c2)o1 [Lapatinib] + CC(=O)Nc1cccc(-n2c(=O)n(C3CC3)c(=O)c3c(Nc4ccc(I)cc4F)n(C)c(=O)c(C)c32)c1 [Trametinib] (partner 0.02 µM)
How it was run: as §1

Lapatinib + Bortezomib = compound: CS(=O)(=O)CCNCc1ccc(-c2ccc3ncnc(Nc4ccc(OCc5cccc(F)c5)c(Cl)c4)c3c2)o1 [Lapatinib] + CC(C)C[C@H](NC(=O)[C@H](Cc1ccccc1)NC(=O)c1cnccn1)B(O)O [Bortezomib] (partner 0.002 µM)
How it was run: as §1

Lapatinib + Luminespib = compound: CS(=O)(=O)CCNCc1ccc(-c2ccc3ncnc(Nc4ccc(OCc5cccc(F)c5)c(Cl)c4)c3c2)o1 [Lapatinib] + CCNC(=O)c1noc(-c2cc(C(C)C)c(O)cc2O)c1-c1ccc(CN2CCOCC2)cc1 [Luminespib] (partner 0.01 µM)
How it was run: as §1

Row | Cell Line | relative viability (Wnt-C59 + Alpelisib; first compound 0.001 µM) | relative viability (Wnt-C59 + Alpelisib; first compound 0.01 µM) | relative viability (Wnt-C59 + Alpelisib; first compound 0.03162 µM) | relative viability (Wnt-C59 + Alpelisib; first compound 0.1 µM) | relative viability (Lapatinib + Trametinib; first compound 0.02 µM) | relative viability (Lapatinib + Trametinib; first compound 0.06325 µM) | relative viability (Lapatinib + Trametinib; first compound 0.2 µM) | relative viability (Lapatinib + Trametinib; first compound 0.6325 µM) | relative viability (Lapatinib + Trametinib; first compound 2 µM) | relative viability (Lapatinib + Bortezomib; first compound 0.02 µM) | relative viability (Lapatinib + Bortezomib; first compound 0.06325 µM) | relative viability (Lapatinib + Bortezomib; first compound 0.2 µM) | relative viability (Lapatinib + Bortezomib; first compound 0.6325 µM) | relative viability (Lapatinib + Bortezomib; first compound 2 µM) | relative viability (Lapatinib + Luminespib; first compound 0.02 µM) | relative viability (Lapatinib + Luminespib; first compound 0.06325 µM) | relative viability (Lapatinib + Luminespib; first compound 0.2 µM) | relative viability (Lapatinib + Luminespib; first compound 0.6325 µM) | relative viability (Lapatinib + Luminespib; first compound 2 µM)
1 | NCI-H460 | 0.45 | 0.46 | 0.472 | 0.413 | 0.0377 | 0.0952 | 0.282 | 0.171 | 0.0626 | 1.02 | 1.02 | 1.15 | 0.984 | 1.11 | 0.0268 | 0.035 | 0.0347 | 0.0312 | 0.026
2 | NCI-H2023 | 0.627 | 0.622 | 0.656 | 0.508 | – | 0.397 | 0.429 | 0.433 | 0.328 | 0.135 | 0.712 | 0.969 | 1.1 | 0.913 | 0.696 | 0.593 | 0.723 | 0.751 | 0.619
3 | HOP-62 | 1.13 | 0.919 | 1.1 | 0.644 | – | 0.378 | 0.343 | 0.472 | 0.293 | – | 0.857 | 0.577 | 0.99 | 0.761 | 0.839 | 0.949 | 0.932 | 0.869 | 1.01
4 | NCI-H2009 | 1.15 | 1.16 | 1.14 | 1.18 | 0.266 | 0.236 | 0.295 | 0.294 | 0.268 | 0.754 | 0.968 | 1.06 | 1.04 | 1.08 | 0.953 | 1.09 | 1.08 | 0.931 | 0.984
5 | NCI-H1915 | 1.07 | 1.01 | 1.07 | 1.03 | – | 0.29 | 0.3 | 0.292 | 0.304 | – | 0.973 | 1.04 | 0.915 | 0.953 | – | 0.847 | 0.832 | 0.707 | 0.848
6 | NCI-H650 | 1.01 | 1.24 | 1.23 | 1.11 | – | 0.78 | 0.965 | 0.955 | 0.927 | – | 0.662 | 0.653 | 0.86 | 0.841 | – | 0.81 | 0.729 | 0.862 | 0.854
7 | NCI-H3122 | 0.836 | 0.784 | 0.872 | 0.716 | 0.256 | 0.203 | 0.207 | 0.218 | 0.248 | 0.927 | 1 | 0.965 | 0.972 | 1.02 | 0.103 | 0.0758 | 0.0797 | 0.0807 | 0.0854
8 | NCI-H2085 | 0.998 | 0.97 | 0.888 | 0.904 | 0.404 | 0.56 | 0.511 | 0.559 | 0.452 | 0.667 | 0.979 | 0.998 | 0.994 | 1.02 | – | 0.402 | 0.396 | 0.447 | 0.322
9 | EKVX | 0.931 | 0.783 | 0.73 | 0.668 | – | 0.29 | 0.315 | 0.249 | 0.147 | 0.888 | 0.862 | 0.914 | 0.634 | 0.161 | 0.712 | 0.804 | 0.767 | 0.853 | 0.447
10 | HCC-15 | 0.962 | 0.952 | 0.904 | 0.868 | – | 0.243 | 0.386 | 0.312 | 0.341 | – | 1.06 | 1.02 | 1 | 0.979 | – | 0.425 | 0.303 | 0.293 | 0.235
11 | COR-L23 | 0.776 | 0.752 | 0.775 | 0.725 | 0.408 | 0.555 | 0.68 | 0.651 | 0.551 | 0.948 | 1.07 | 1.08 | 0.934 | 0.998 | 0.715 | 0.688 | 0.731 | 0.646 | 0.567
12 | NCI-H1355 | 1.01 | 0.746 | 0.801 | 0.733 | 0.406 | 0.349 | 0.37 | 0.387 | 0.261 | – | 0.954 | 1.13 | 1.2 | 0.573 | – | 0.646 | 0.634 | 0.685 | 0.441
13 | NCI-H441 | 0.797 | 0.687 | 0.809 | 0.583 | 0.429 | – | 0.398 | 0.392 | 0.417 | – | 0.628 | 0.45 | 0.379 | 0.657 | – | 0.299 | 0.278 | 0.282 | 0.322
14 | NCI-H322M | 0.747 | 0.715 | 0.718 | 0.478 | 0.493 | 0.435 | 0.492 | 0.508 | 0.377 | 1.12 | 1.02 | 1.08 | 1.23 | 1.3 | 0.883 | 0.6 | 0.758 | 0.753 | 0.633
15 | NCI-H1993 | 0.763 | 0.642 | 0.682 | 0.708 | 0.458 | – | 0.57 | 0.496 | 0.477 | 0.88 | – | 0.871 | 0.889 | 0.627 | 0.824 | – | 0.737 | 0.749 | 0.476
16 | LOU-NH91 | 0.744 | 0.597 | 0.683 | 0.79 | 0.787 | 0.684 | 0.726 | 0.709 | 0.665 | – | 0.469 | 0.522 | 0.499 | 0.544 | 0.368 | 0.305 | 0.364 | 0.346 | 0.362
17 | 201T | 1.06 | 1.01 | 0.99 | 1 | 0.735 | 0.719 | 0.694 | 0.726 | 0.651 | 1.06 | 1.12 | 1.08 | 1.08 | 1.14 | 1.02 | 0.976 | 1.03 | 1.03 | 1.04
18 | LXF-289 | 1.05 | 1.03 | 1.04 | 1.02 | 0.713 | 0.689 | 0.68 | 0.652 | 0.631 | 0.972 | 0.931 | 0.981 | 1 | 0.929 | 0.709 | 0.459 | 0.603 | 0.603 | 0.65
